Assay: Half life of 80% diluted human plasma with 0.01 M phosphate buffer of pH 7.4
Assay type: ADME
Conditions: 80% human plasma

SMILES	half-life
Cc1ccc(S(=O)(=O)/N=C(\OC(C)C)c2ccccc2)cc1	3.25 h
Cc1ccc(S(=O)(=O)/N=C(\OC2CCN(C)CC2)c2ccccc2)cc1.Cl	0.6 h
CO/C(=N\S(=O)(=O)c1ccc(C)cc1)c1ccccc1	0.117 h
Cc1ccc(S(=O)(=O)/N=C(\Oc2ccccc2C(=O)OCC(=O)N(C)C)c2ccccc2)cc1	0.01 h
CCOC(=NS(=O)(=O)c1ccc(C)cc1)OCC	1.3 h
Cc1ccc(S(=O)(=O)/N=C(\OCCCN(C)C)c2ccccc2)cc1.Cl	0.0667 h
CCCC/C(=N/S(=O)(=O)c1ccc(C)cc1)OC	0.467 h
Cc1ccc(S(=O)(=O)/N=C(\OCC(=O)N(C)C)c2ccccc2)cc1	0.0333 h
CCO/C(C)=N\S(=O)(=O)c1ccc(C)cc1	0.107 h
Cc1ccc(S(=O)(=O)/N=C(\OCCN2CCCCC2)c2ccccc2)cc1.Cl	< 0.0167 h
CO/C(C)=N\S(=O)(=O)c1ccc(C)cc1	0.135 h
CCC/C(=N/S(=O)(=O)c1ccc(C)cc1)OC	0.533 h
CCCO/C(=N\S(=O)(=O)c1ccc(C)cc1)c1ccccc1	0.333 h
CCO/C(CC)=N\S(=O)(=O)c1ccc(C)cc1	0.4 h
COC(=NS(=O)(=O)c1ccc(C)cc1)OC	0.533 h
CCO/C=N\S(=O)(=O)c1ccc(C)cc1	< 0.0167 h
Cc1ccc(S(=O)(=O)/N=C(\OCCN2CCCC2=O)c2ccccc2)cc1	0.08 h
CCO/C(=N\S(=O)(=O)c1ccc(C)cc1)c1ccccc1	0.333 h
Cc1ccc(S(=O)(=O)/N=C(\OCCN(C)C)c2ccccc2)cc1.Cl	< 0.0167 h

Assay: Half-life of hydrolysis at pH 4.0 at 37 degree C
Assay type: ADME
Conditions: buffer

SMILES	half-life
Cc1ccc(S(=O)(=O)/N=C(\OCCCN(C)C)c2ccccc2)cc1.Cl	0.883 h
Cc1ccc(S(=O)(=O)/N=C(\OCCN2CCCCC2)c2ccccc2)cc1.Cl	0.583 h
Cc1ccc(S(=O)(=O)/N=C(\OCCN(C)C)c2ccccc2)cc1.Cl	0.583 h

Assay: Half-life of hydrolysis at pH 6.0 at 37 degree C
Assay type: ADME
Conditions: buffer

SMILES	half-life
Cc1ccc(S(=O)(=O)/N=C(\OC(C)C)c2ccccc2)cc1	23 h
Cc1ccc(S(=O)(=O)/N=C(\OC2CCN(C)CC2)c2ccccc2)cc1.Cl	1.5 h
Cc1ccc(S(=O)(=O)/N=C(\Oc2ccccc2C(=O)OCC(=O)N(C)C)c2ccccc2)cc1	1.55 h
CCO/C(C)=N\S(=O)(=O)c1ccc(C)cc1	2.92 h
CO/C(C)=N\S(=O)(=O)c1ccc(C)cc1	2.5 h
COC(=NS(=O)(=O)c1ccc(C)cc1)OC	14.5 h
CCO/C=N\S(=O)(=O)c1ccc(C)cc1	0.02 h
CCO/C(=N\S(=O)(=O)c1ccc(C)cc1)c1ccccc1	3.67 h

Assay: Half-life of hydrolysis at pH 7.4 at 37 degree C
Assay type: ADME
Conditions: buffer

SMILES	half-life
Cc1ccc(S(=O)(=O)/N=C(\OC(C)C)c2ccccc2)cc1	17.4 h
Cc1ccc(S(=O)(=O)/N=C(\OC2CCN(C)CC2)c2ccccc2)cc1.Cl	1.48 h
CO/C(=N\S(=O)(=O)c1ccc(C)cc1)c1ccccc1	1.9 h
Cc1ccc(S(=O)(=O)/N=C(\Oc2ccccc2C(=O)OCC(=O)N(C)C)c2ccccc2)cc1	1.52 h
CCOC(=NS(=O)(=O)c1ccc(C)cc1)OCC	26.3 h
Cc1ccc(S(=O)(=O)/N=C(\OCCCN(C)C)c2ccccc2)cc1.Cl	0.183 h
CCCC/C(=N/S(=O)(=O)c1ccc(C)cc1)OC	2.67 h
Cc1ccc(S(=O)(=O)/N=C(\OCC(=O)N(C)C)c2ccccc2)cc1	2.4 h
CCO/C(C)=N\S(=O)(=O)c1ccc(C)cc1	2.4 h
Cc1ccc(S(=O)(=O)/N=C(\OCCN2CCCCC2)c2ccccc2)cc1.Cl	0.0217 h
CO/C(C)=N\S(=O)(=O)c1ccc(C)cc1	1.38 h
CCC/C(=N/S(=O)(=O)c1ccc(C)cc1)OC	2.42 h
CCCO/C(=N\S(=O)(=O)c1ccc(C)cc1)c1ccccc1	2.92 h
CCO/C(CC)=N\S(=O)(=O)c1ccc(C)cc1	1.8 h
COC(=NS(=O)(=O)c1ccc(C)cc1)OC	4.25 h
CCO/C=N\S(=O)(=O)c1ccc(C)cc1	0.0133 h
Cc1ccc(S(=O)(=O)/N=C(\OCCN2CCCC2=O)c2ccccc2)cc1	1.25 h
CCO/C(=N\S(=O)(=O)c1ccc(C)cc1)c1ccccc1	2.92 h
Cc1ccc(S(=O)(=O)/N=C(\OCCN(C)C)c2ccccc2)cc1.Cl	0.045 h

From ChEMBL document CHEMBL1123995, “N-sulfonyl imidates as a novel prodrug form for an ester function or a sulfonamide group” (J Med Chem, 1988)
